Experimental data taken from US20020142982A1, “Method for regulating angiogenesis” (priority 1999, published 2002).

Experiments:
Type in all cases: cell-based, human
ERK-2 = ERK-2 immune complex kinase assay in HUVEC; conditions: PTx 200 ng/mL or PD98059 10 μM, 2 hours pretreatment
Description: As a second functional assay, ERK-2 kinase activity was measured in response to SPP treatment. For these experiments, endothelial cells were starved for 19 hours, and then stimulated with SPP for 10 minutes. Cells were then lysed, and ERK-2 kinase activity was measured by an immune complex kinase assay using myelin basic protein (MBP) as substrate. Some cells were pretreated with pertussis toxin (PTx) at 200 ng/mL, or PD98059 at 10 μM for 2 hours prior to stimulation.

HUVEC [1] = assay: C2-Ceramide-induced apoptosis of HUVEC (DNA fragmentation); conditions: pretreatment 2 hours; PD98059 10 μM
Description: The ability of SPP to protect endothelial cells from apoptosis was investigated. In these experiments, HUVEC were treated with 1 μM C2-Ceramide for 12 hours and apoptosis was measured in the following manner: HUVEC were plated onto coverslips and allowed to grow for 2 days. Cells were washed three times with medium M199, and treated with 1 μM C2-Ceramide (Biomol) for 12 hours in the presence or absence of SPP. Subsequently, cells were fixed with methanol at −20° C. for 5 minutes, air dried, and stained with Hoechst 33258 dye (0.5 μg/mL for 5 minutes; Sigma Chemical Co., St. Louis, Mo.). The apoptotic nuclei were identified with the aid of a Zeiss Axiovert 100TB fluorescence microscope. For quantification, HUVEC were labeled with ^3Hmethyl-thymidine (5 μCi/mL, NEN DuPont) for 24 hours. Following three washes with medium M199, cells were treated with C2-Ceramide as above. 12 hours later, cells were extracted with lysis buffer (5 mM tris, pH 7.4, 2 mM EDTA, 0.5% TX-100) at 4° C. for 20 minutes. After centrifugation (15,000 g, 20 minutes), the radioactivity present in the supernatant and sediment was measured by liquid scintillation counting. The percentage of DNA fragmentation was determined as ((supernatant cpm)/(supernatant cpm+sediment cpm))×100%.
SPP+PTx and SPP+PD98059 (10 μM), respectively, for 2 hours prior to the addition of C2-Ceramide (1 μM) and SPP (10 to 500 nM). Data are mean±standard deviation of triplicate determinations from a representative experiment which was repeated two times. […] A similar effect was also seen when growth factor withdrawal, and 15-deoxy Δ^12,14 prostaglandin J2 were used as apoptotic stimuli (data not shown). […] Therefore SPP induced endothelial cell survival requires the Gi/ERK signaling pathway.

HUVEC [2] = assay: Adherens junction assembly in HUVEC, immunofluorescence of VE-cadherin and catenins; conditions: for VE-cadherin, α-, β- and γ-catenin localization at cell-cell junctions: 500 nM, 1 hour
Description: To investigate whether SPP regulates the formation of adherens junction in endothelial cells, HUVEC were plated at a density of 2×10^4 cells/em^2 for 2 days, starved in lipid-depleted medium and treated without (cont) or with SPP (500 nM for 1 hours). For these experiments, after treatment cells were washed with ice-cold PBS, fixed with 4% formaldehyde at room temperature or methanol at −20° C. for 15 minutes. In the case of formaldehyde fixation, cells were permeabilized with 0.2% TX-100. After washing with PBS, cells were stained with antibodies as follows: VE-cadherin ([…], Transduction Labs, San Diego, Calif.; 1 μg/mL, Santa Cruz Biotechnology, Inc., Santa Cruz, Calif.), α-catenin ([…], Transduction Labs), β-catenin (1.25 μg/mL, Transduction Labs; 0.4 μg/mL, Santa Cruz), γ-catenin ([…], Transduction Labs). The primary antibody staining was visualized with FITC-conjugated goat anti-rabbit or TRITC conjugated sheep anti-mouse (1:1000, Cappel, now owned by ICN, Costa Mesa, Calif.) for 30 minutes at room temperature, and imaged on a Zeiss Axiovert 100TV fluorescence microscope. […]

HUVEC [3] = assay: HUVEC morphogenesis on MATRIGEL (in vitro angiogenesis, tubular length); conditions: for HUVEC morphogenesis on MATRIGEL (tubular length): 12-18 hours, SPM and C1P 1 μM
Description: FIG. 42 is microscope images showing morphogenesis of HUVEC cells plated on Matrigel. HUVEC cells were transduced with 50 MOI of indicated viruses; a,b=none, c=β-gal, d=wild-type EDG-1, e=T236AEDG-1, f=T236AEDG-1+wild-type Akt. Total viral load in c-f is normalized. In vitro angiogenesis assay on Matrigel was conducted in the presence (b to f) or not (a) of 100 nM S1P. The numbers are mean±s.e.m of total tubular length per microscopic field (n=2). Scale bar=170 μm.
To investigate SPP induction of angiogenesis, 200 μL aliquots of thawed MATRIGEL were polymerized in 24-well tissue culture plates. HUVEC were trypsinized, resuspended in plain M199 medium containing soybean trypsin inhibitor (10 mg/mL, Sigma Chemical Co., St. Louis, Mo.). Following centrifugation (250 g; 5 minutes), cells were resuspended in plain M199 supplemented with 2% CFBS at a density of 1.5×10^5 cells/mL. 200 μL of cell suspension were seeded on these gels in the presence or absence of SPP (Biomol), for 12-18 hours. Cells were rinsed two times with phosphate buffered saline (PBS), and then fixed with 4% formaldehyde. Results were recorded photographically using a Zeiss Axiovert 100TV microscope equipped with a 5× objective. Five random fields of each well were photographed, and total tubular length was quantified by image analysis (Kinsella, J. et al., Experimental Cell Research 199: 56-62 (1992); Gamble J., et al., J. Cell Biol. 121: 931-943 (1993)).
Scale bar represents 52 microns. These quantitative data are the mean±standard deviation of duplicate determinations from a representative experiment which was repeated at least three times. SPP concentrations (in μM) are indicated in parentheses. For SPP +PTx, HUVEC were pretreated with PTx (200 ng/mL) for 2 hours, trypsinized, plated onto MATRIGEL, then stimulated with 500 nM SPP in the presence of PTx (20 ng/mL) for 16-18 hours. For SPP+C3, HUVEC were pretreated with C3 exoenzyme (10 μg/mL) for 48 hours, trypsinized, plated onto MATRIGEL, stimulated with 500 nM SPP together with the same concentration of C3 exotoxin. SPM, sphingomyelin (1 μM). For C1P, C8-ceramide-1-phosphate (1 μM). The maximal effects achieved by 1 μM SPP was indistinguishable from the positive control medium which contained FBS.
In these experiments, HUVEC were plated onto MATRIGEL in the presence of the same amount of corresponding antibodies without or with 500 nM SPP. 16 hours later, total length of HUVEC networks formed on MATRIGEL was quantified.

HUVEC [4] = assay: SPP-induced intracellular calcium in HUVEC (Indo-1 fluorescence); conditions: PTx 500 ng/mL pretreatment 16 hours
Description: Functional assays were used to test for the presence of Gi-coupled and Gq-coupled SPP receptors in HUVEC. First, intracellular calcium levels were measured in response to SPP. For these experiments, cells were grown on 100-mm tissue culture dishes and loaded with the fluorescent calcium-sensitive dye, Indo-1 acetoxymethyl ester (Indo-1/AM, 5 μg/mL; Molecular Probes, Inc., Eugene, Oreg.), for 30 min at 37° C. Cells were then washed with medium M199, briefly trypsinized (0.05% porcine trypsin/0.02% EDTA in HBSS (JRH Biosciences, Lenexa, Kans.), and the trypsin activity was immediately neutralized with soybean trypsin inhibitor (5 μg/mL, Sigma Chemical Co., St. Louis, Mo.). Following centrifugation (250 g×5 min), cells were resuspended in M199 medium to a density of 2.7×10^5 cells/mL. Cells were then stimulated with different doses of SPP. Some cells were pretreated with the Gi inhibitor pertussis toxin (PTx, 500 ng-/mL) for 16 hours. Calcium ion concentration was then quantified by measuring changes in indo-1 fluorescence in 2 mL of cell suspension by a Hitachi F-2000 fluorescence Spectrophotometer with constant stirring. Fluorescence emission was monitored at 400 and 475 nm with excitation at 352 nm. [Ca^+2]1 was calculated as described in Volpi and Berlin, J. Cell Biol., Vol. 107, 2533-39 (1988).

Row | Molecule | inhibition of SPP-induced ERK activity (ERK-2) | inhibition of the cytoprotective effect of SPP (HUVEC [1]) | VE-cadherin, α-, β- and γ-catenin localization at cell-cell junctions (HUVEC [2]) | HUVEC morphogenesis on MATRIGEL (tubular length) (HUVEC [3]) | also measured
1 | COc1cccc(-c2cc(=O)c3ccccc3o2)c1N [PD98059] | inhibited completely | completely inhibited | – | – | –
2 | CCCCCCCCCCCCC/C=C/[C@@H](O)[C@H](COP(=O)(O)O)NC(=O)CCCCCCC [ceramide-1-phosphate, C8-ceramide-1-phosphate] | – | – | had no effect | inactive | –
3 | CCCCCCCCCCCCC/C=C/[C@@H](O)[C@@H](N)CO [sphingosine] | – | – | had no effect | – | –
4 | ceramide | – | – | had no effect | – | –
5 | pertussis toxin | inhibited completely | completely inhibited | – | – | inhibition of SPP-induced calcium response (HUVEC [4]): approximately 90%; inhibition of SPP-induced β-catenin translocation (HUVEC [2]; HUVEC, SPP treatment): did not inhibit; inhibition of SPP-induced morphogenesis (HUVEC [3]; 500 nM SPP, MATRIGEL): potently inhibited
6 | sphingomyelin | – | – | had no effect | inactive | –
